How the values were obtained:
Escherichia coli [1] = assay: Enzyme catalytic constant (Kcat) against Deacetoxycephalosporin C synthase
Escherichia coli [2] = assay: Enzyme kinetic constant (Km) against Deacetoxycephalosporin C synthase

Row | SMILES | k cat (Escherichia coli [1]) | Km (Escherichia coli [2])
1 | CC1(C)S[C@@H]2[C@H](NC(=O)CCCCC(=O)O)C(=O)N2[C@H]1C(=O)O | 0.071 s⁻¹ | 1.22 mM
2 | CC1(C)S[C@@H]2[C@H](NC(=O)CCC[C@@H](N)C(=O)O)C(=O)N2[C@H]1C(=O)O | 0.442 s⁻¹ | 10.3 mM

— ChEMBL document CHEMBL1129113, “Adipoyl-6-aminopenicillanic acid is a substrate for deacetoxycephalosporin C synthase (DAOCS)” (Bioorg Med Chem Lett, 1996)
